Measured values published in patent US20260327239A1, “COMPOUNDS FOR COVALENT INHIBITION OF SHP2” (Purdue Research Foundation, priority 2023, published 2026).

Target: T1, SHP2 (residues 224-528) (Homo sapiens, UniProt Q06124)
T1 construct: 4× solution of SHP2 (residues 224-528)
T1 sequence (Q06124 224-528): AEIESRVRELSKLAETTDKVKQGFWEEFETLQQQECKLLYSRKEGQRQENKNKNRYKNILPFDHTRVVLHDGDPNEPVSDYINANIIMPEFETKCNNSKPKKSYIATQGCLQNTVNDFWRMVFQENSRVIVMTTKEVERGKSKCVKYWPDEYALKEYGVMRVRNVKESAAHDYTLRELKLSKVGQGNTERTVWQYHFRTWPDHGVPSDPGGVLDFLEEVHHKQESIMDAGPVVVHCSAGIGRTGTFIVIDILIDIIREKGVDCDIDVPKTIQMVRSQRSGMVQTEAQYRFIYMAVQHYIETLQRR
Test: Kinetic characterization of SHP2 inactivation (pNPP cleavage progress curves, kobs, kinact/KI)
Format: biochemical
Conditions: pH 7, role: inhibitor; substrate pNPP 3 mM, 100 nM SHP2, pH 7.0, 25° C; read-out: kinact/KI (converted)
Description: Covalent inhibitors work by forming a covalent bond with a reactive functional group in the target enzyme. Consequently, the kinetics for enzyme inactivation by a covalent inhibitor is not an equilibrium process as with reversible inhibition. The potency of a reversible inhibitor can be measured by its IC50 value. Unlike reversible inhibitors, where inhibition is only concentration-dependent, covalent inhibitors show both time- and concentration-dependent target inhibition (a covalent bond formation is a time-dependent event). If sufficient time is available, covalent inhibitors can completely neutralize the target, rather than go to equilibrium. As a result, the potency and selectivity of a covalent inhibitor cannot be determined by IC50 values; instead, the rate of inactivation of the target (kinact) and the inhibition constant (KI) were determined. The bimolecular rate constant (kinact/KI), was chosen to rank the potency of covalent inhibitors (Ruddraraju et al., 2017, Molecular Biosystems 13(7), 1257-1279).
PTPs catalyze the dephosphorylation of tyrosine-phosphorylated protein substrates through a conserved mechanism that relies on a catalytic cysteine residue (Zhang, Z.-Y et al., 2003, Prog. Nucleic Acid Research Molecular Biology, 73, 171-220). This provides a mechanistic rationale for the assessment of electrophilic Michael acceptors, such as those synthesized in the present disclosure as potential covalent inhibitors of the SHP2. The enzymatic cleavage of para-nitrophenyl phosphate by SHP2 was measured over time in the presence of 100 μM inhibitor or DMSO, to determine the observed first-order rate constant (kobs). Based on kobs values, compounds were further evaluated in a dose-dependent manner to determine the second-order rate constant (kinact/KI) indicating the overall efficacy of the compounds, which was used to assess the structure-activity relationship (SAR) for the analogs of interest and design additional analogs (see Table 1). […] It has been known that modifications to the electronegativity of substituents proximal to electrophilic centers alter the reactivity of the electrophile.
The efficacy of covalent inhibitors can be broken down into the initial reversible binding of the compounds (KI), and the rate of covalent bond formation and enzyme inactivation (kinact). These two constants can be used individually, or as a ratio to determine the overall efficacy of the inhibitor's efficacy. To investigate the contribution to reversible binding compound (34) was evaluated, which lacks the carbonyl of the Michael acceptor to prevent the formation of a covalent adduct.
Inhibitors were evaluated for their ability to inhibit the reaction catalyzed by SHP2 using para-nitrophenyl phosphate (pNPP) as a substrate at pH 7 and 25° C. A 2× solution of inhibitor was diluted into DMG buffer (50 mM 3,3-dimethylglutarate pH 7.0, 1 mM EDTA, ionic strength adjusted to 150 mM using NaCl) was added to a clear flat-bottom 96-well plate (Corning Costar Assay Plate #9017), and serially diluted 1.5-fold, resulting in 100 μL volumes of varying inhibitor concentrations. To this was added a 4× solution of pNPP (12 mM) in DMG buffer. The reaction was initialized by the addition of a 4× solution of SHP2 (residues 224-528), resulting in a final solution of: inhibitor (100-0 μM), pNPP (3 mM), and SHP2 (100 nM). The plate was then monitored for a change in absorbance ab […] using a CLARIOstar^Plus plate reader (BMG Labetch) over the course of an hour. The resulting progress curves for each inhibitor were imported into Graphpad Prism 9 (GraphPad Software, San Diego, CA (USA)), and a baseline correction analysis was completed for fitting purposes. Each curve was fit to the equation Y=V0×(1−e^−kobs*t)/kobs.^[17.22] The kobs values were then plotted against inhibitor concentrations. If the resulting graph was linear, the kinact/KI value was determined by the slope of that line and the 95% confidence interval (95% CI). […]

C=C1C(=O)[C@@]2(C(=O)N3CCN(c4ccc(I)cc4)CC3)CC(=O)C[C@@H]1C2 [Compound 37]
kinact/KI: 396 M⁻¹ s⁻¹
